Each structure is given as a SMILES string.

Holding throughout (type): functional, cell-based
Data set [1] has as its target T1, Hepatic sodium/bile acid cotransporter (Rattus norvegicus, UniProt P26435).
T1 sequence (P26435 whole entry): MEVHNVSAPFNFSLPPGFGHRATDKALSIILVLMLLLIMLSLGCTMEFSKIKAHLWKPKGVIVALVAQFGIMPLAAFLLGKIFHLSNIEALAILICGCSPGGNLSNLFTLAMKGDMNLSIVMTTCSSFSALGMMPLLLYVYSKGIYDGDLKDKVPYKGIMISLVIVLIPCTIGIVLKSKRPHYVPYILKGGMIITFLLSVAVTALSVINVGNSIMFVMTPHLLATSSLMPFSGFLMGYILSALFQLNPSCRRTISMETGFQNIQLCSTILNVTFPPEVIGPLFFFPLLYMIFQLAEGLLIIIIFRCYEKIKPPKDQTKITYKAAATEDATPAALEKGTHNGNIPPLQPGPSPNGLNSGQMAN
Nature of the data set: TP_TRANSPORTER: inhibition of Taurocholate uptake (Taurocholate: 10 uM, Oligomycin: 0.01mg/mL) in Ntcp-expressing HPCT-1E3 cells.

Data set [2] deals with T1, Hepatic sodium/bile acid cotransporter. Nature of the data set: TP_TRANSPORTER: uptake in Ntcp-expressing HPCT-1E3 cells.
For data set [3] the target is unchanged. Nature of the data set: TP_TRANSPORTER: inhibition of Taurocholate uptake (Taurocholate: 10 uM, GC: 100 uM) in Ntcp-expressing HPCT-1E3 cells. To be noted: hpct-1e3, 100 µM.

Take `CC[C@H]1/C=C/C=C/C[C@@H](C)[C@H](O)[C@@](C)(O)C(=O)[C@@H](C)[C@H](O)[C@@H](C)C(=O)[C@@H](C)[C@H](O)[C@@H](C)/C=C/C(=O)O[C@@H]2[C@H](C)[C@H](CC1)O[C@]1(CC[C@H](C)[C@H](C[C@@H](C)O)O1)[C@H]2C` [OLIGOMYCIN]: the Activity entry in data set [1] was “inhibitor [(at a rough estimate) 10 % of control]”. Regarding `C[C@H](CCC(=O)NCC(=O)O)[C@H]1CC[C@H]2[C@@H]3[C@H](O)C[C@@H]4C[C@H](O)CC[C@]4(C)[C@H]3C[C@H](O)[C@]12C` [GLYCOCHOLIC ACID], the Activity entry is “is not a substrate [-]” in data set [2] and “inhibitor [(at a rough estimate) 60 % of control]” in data set [3].

For `CCCCNc1cc(C(=O)O)cc(S(N)(=O)=O)c1Oc1ccccc1` [BUMETANIDE], in data set [2], the Activity entry was “is not a substrate [-]”.

For the origin of these results see ChEMBL document CHEMBL2074132, “Functional characterization of the hepatic sodium-dependent taurocholate transporter stably transfected into an immortalized liver-derived cell line and V79 fibroblasts” (Eur J Cell Biol, 1996).
